Results on 51 compounds are retold here after PubChem BioAssay AID179 (DTP/NCI, 2004).

The source made the active and inactive calls.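 How the source made its calls: active means compounds giving half or more protection of infected cells from virus-caused growth loss, again on retest; inactive means the rest.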

For the test, the system named is CEM cells HIV-1 protection, formazan growth assay. The experiment in a line: NCI AIDS Antiviral Assay. The settings on record: for IC50: measured here: growth of uninfected CEM cells. In short, it runs like this: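 Soluble formazan readout of cell growth; CEM cells ± HIV-1; 5 drug concs. ≥50% protection → retest; ≥50% again = moderately active; reproducible 100% = confirmed active.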

Usually EC50 stands for the concentration that produces a half-maximal response. A word on the IC50: it is the concentration that inhibits the measured activity by half. For `Cc1ccc(S(=O)(=O)N2CCN3CCN(CCN(C)CCN4CCN(CC4)CCN(S(=O)(=O)c4ccc(C)cc4)CCN(S(=O)(=O)c4ccc(C)cc4)CCN(S(=O)(=O)c4ccc(C)cc4)CCN(S(=O)(=O)c4ccc(C)cc4)CCN4CCN(CCN(C)CCN5CCN(CC5)CCN(S(=O)(=O)c5ccc(C)cc5)CCN(S(=O)(=O)c5ccc(C)cc5)CCN(S(=O)(=O)c5ccc(C)cc5)CC2)CC4)CC3)cc1`, the EC50 is greater than 5.01 µM and the IC50 was found to be 0.724 µM.
The corresponding values for `O=C(CC1C(=O)Nc2ccccc2S1=O)Nc1ccccc1` (stereo not drawn) are greater than 22.9 µM and greater than 22.9 µM.
The corresponding values for `O=C1C[C@H](c2ccccc2)C2(C(=O)c3ccccc3C2=O)[C@@H](c2ccccc2)C1` are 51.3 µM and 102 µM.
The corresponding values for `NN1C(=O)c2cccc3cccc(c23)C1=O` are greater than 100 µM and 49 µM.
Turning to `COc1ccc(C2c3c(-c4ccccc4)nn(-c4ccccc4)c3Oc3ncn4nc(CC#N)nc4c32)cc1OC` (stereo not drawn), the EC50 was greater than 200 µM and the IC50 was greater than 200 µM.
As for `CCCC1C(C#N)(C#N)C(C#N)=C(N)C1(C)C(C)=O` (stereo not drawn), the EC50 was greater than 200 µM and the IC50 was greater than 200 µM.
With `CC(C)(C)[Si](C)(C)OCC1OC(n2ccc(=O)[nH]c2=O)C(O[Si](C)(C)C(C)(C)C)C12OC2C(=O)NO` (stereo not drawn), the EC50 was greater than 20 µM and the IC50 was determined as 1.45 µM.
On to `Cn1cccnc1=O`, for which the EC50 is greater than 200 µM and the IC50 was greater than 200 µM.
For the compound `CCN(CC)CC(=O)Nc1cc(C)ccc1Cl`, the EC50 was greater than 200 µM and the IC50 was greater than 200 µM.
As for `CCOP(=O)(Cc1cc(C(C)(C)C)c(O)c(C(C)(C)C)c1)OCC`, the EC50 is greater than 100 µM and the IC50 was greater than 100 µM.
On to `CCOC(=O)CSc1nnc(C(Sc2nc(-c3ccccc3)c(-c3ccccc3)[nH]2)C(C)C)n1-c1ccccc1` (stereo not drawn), for which the EC50 was greater than 24 µM and the IC50 is greater than 24 µM.
`NC(=O)CN1CC(C2=C(O)CN(CC(N)=O)C2=O)=CC1=O`: the outcome was inactive.
With `CCCCOc1cc(C[S+]2CCCC2)c(OC)cc1C[S+]1CCCC1`, the EC50 was greater than 145 µM and the IC50 worked out at 14.8 µM.
The corresponding values for `COc1cc(C(c2ccc(N(Cc3ccccc3)Cc3ccccc3)cc2NC(C)=O)c2ccc(N(Cc3ccccc3)Cc3ccccc3)cc2NC(C)=O)ccc1O` are greater than 200 µM and greater than 200 µM.
The corresponding values for `C=CCN1c2ccccc2Sc2cnccc21` are greater than 191 µM and 33.1 µM.
As for `OC(c1ccccc1)(c1cccnc1)C(O)(c1ccccc1)c1cccnc1` (stereo not drawn), the EC50 was greater than 200 µM and the IC50 was greater than 200 µM.
Consider `Cc1cc(Oc2cnc(=O)[nH]c2)cs1`, for which the EC50 is greater than 200 µM and the IC50 is greater than 200 µM.
As to `Cn1c(=O)c2c(nc3n2CC(=O)N3CCCCl)n(C)c1=O`, the EC50 was 85.1 µM and the IC50 was greater than 200 µM.
In the case of `CC(C)=C1C(=O)C[C@@]2(C)C[C@H]3OC3(C)CC/C=C(/C)CCC12` (stereo partly drawn), the outcome was inactive.
On to `CC(=O)C1CCC2C3CC4OCC5(CCC(O)CC45Br)C3CCC12C` (stereo not drawn), for which the EC50 is greater than 200 µM and the IC50 was 40.7 µM.
On to `O=S(=O)(O)c1ccc2cc(S(=O)(=O)O)ccc2c1`, for which the outcome was inactive.
Same read-out and setting: the result for `CC1(C)CCc2cc3c(cc2O1)OCCC3O` (stereo not drawn) reads “inactive”.
As to `CCOC(=O)C(Cc1cn(S(=O)(=O)c2ccc(C)cc2)cn1)P(=O)(OCC)OCC` (stereo not drawn), the EC50 is greater than 200 µM and the IC50 was greater than 200 µM.
Regarding `O=C1CCCc2cc3c(cc21)CCC3C(=O)O` (stereo not drawn), the result was inactive.
Take `S=c1nc(COc2ccc(Cl)cc2Cl)[nH][nH]1`: the EC50 is greater than 67.6 µM and the IC50 is 51.3 µM.
`COC(=O)c1c2cccccc-2c(Cc2c3cccccc-3c(C(=O)OC)c2O)c1O`: the EC50 was greater than 200 µM and the IC50 was greater than 200 µM.
As for `CCOC(=O)c1ccc(CSc2ccccc2)c([N+](=O)[O-])c1`, the EC50 was greater than 58.9 µM and the 50% inhibitory concentration (IC50) is greater than 58.9 µM.
On to `Clc1cc2c(c(CSc3nc4ccccc4n4cccc34)c1)OCOC2`, for which the EC50 is greater than 13.5 µM and the IC50 is greater than 13.5 µM.
In the case of `CN(C)C(=S)SSSSC(=S)N(C)C`, the EC50 was greater than 2 µM and the IC50 came to 0.525 µM.
As for `Cc1ccc(-c2c(C#N)c(-c3ccccc3)n(NS(=O)(=O)c3ccccc3)c(=O)c2C#N)cc1`, the EC50 is greater than 200 µM and the IC50 came to 28.8 µM.
On to `CC(=Nc1ccc(Cl)cc1)c1ccncc1`, for which the outcome was inactive.
As to `CCOC(=O)CCNC(=O)c1cc(C)cc2c1Oc1c(cc(C)cc1C(=O)NCCC(=O)OCC)S2`, the EC50 was greater than 200 µM and the IC50 is 29.5 µM.
Consider `CC(CC(=O)N(C)[C@H](C[C@@H](C)C(Cl)(Cl)Cl)c1nccs1)C(Cl)Cl` (stereo partly drawn), for which the outcome was inactive.
Consider `c1ccc2c(c1)CCCc1cc3ccccc3nc1-2`, for which the EC50 is greater than 55 µM and the IC50 was greater than 55 µM.
Take `N#CC12CCC1C1CCCCC12N1CCSCC1` (stereo not drawn): the outcome was inactive.
As for `Cc1cn(C(Cc2ccccc2)OCC[Se]c2ccccc2)c(=O)[nH]c1=O` (stereo not drawn), the EC50 was 100 µM and the IC50 is greater than 200 µM.
On the same counts, the results for `CC(=O)/C(=C/c1ccccc1Br)C(=O)c1ccccc1` are greater than 57.5 µM and 22.4 µM.
For the compound `COC1OC(Cn2cc([N+](=O)[O-])nc2C)C(O)C(O)C1O` (stereo not drawn), the EC50 was greater than 200 µM and the IC50 is greater than 200 µM.
Regarding `COC(C(=O)CN(C)C)(c1ccccc1)c1ccccc1`, the EC50 was greater than 200 µM and the IC50 came to 141 µM.
On the same counts, the results for `Oc1cc2c3c(c1)CCCN3CCC2` are greater than 200 µM and 195 µM.
With `CCCCCCCCCCCCc1ccsc1-c1ccc(-c2ccc(-c3sc(-c4cc(CCCCCCCCCCCC)c(-c5ccc(-c6ccc(-c7sccc7CCCCCCCCCCCC)s6)s5)s4)cc3CCCCCCCCCCCC)s2)s1`, the EC50 is greater than 50.1 µM and the IC50 was greater than 50.1 µM.
As for `CC(C)(C)C1=C(Br)C(O)(C(C)(C)C)OP1(=O)c1ccccc1` (stereo not drawn), the EC50 was greater than 200 µM and the IC50 was 151 µM.
For `CC(=O)CC(=O)N(CCN(C(=O)CC(C)=O)c1ccccc1)c1ccccc1`, the EC50 is greater than 178 µM and the 50% inhibitory concentration (IC50) was greater than 178 µM.
On to `NNc1nncc2n[nH]nc12`, for which the EC50 was greater than 200 µM and the IC50 was greater than 200 µM.
`COc1ccc2c(c1)-c1c(c3cc(OC)ccc3n1CCCN(C)C)CC2`: the EC50 was greater than 200 µM and the IC50 amounted to 5.5 µM.
On to `N#Cc1c(-c2ccccc2)cc(-c2ccccc2)n(C2OCC(O)C(O)C2O)c1=S` (stereo not drawn), for which the EC50 was greater than 200 µM and the IC50 was found to be 21.4 µM.
The corresponding values for `O=[As](O)(O)c1ccc(F)cc1` are greater than 200 µM and greater than 200 µM.
On the same counts, the results for `CC(=O)NC(NCCN)(c1ccccc1)c1ccccc1` are greater than 200 µM and greater than 200 µM.
For `CC(C)(C)C1(C#N)C(=O)N(c2ccc(N3C(=O)C(C#N)(C(C)(C)C)C34c3ccccc3-c3ccccc34)cc2)C12c1ccccc1-c1ccccc12` (stereo not drawn), the EC50 is greater than 372 µM and the IC50 was 107 µM.
Consider `S=C1C(CCCOCc2ccccc2)C2CCCC23CC2(CCN13)OCCS2` (stereo not drawn), for which the EC50 is greater than 200 µM and the IC50 worked out at 39.8 µM.
Take `C=[CH][Sn]([CH]=C)([S]c1cccc2cccnc12)[S]c1cccc2cccnc12`: the result was inactive.
